# Where “and” joins values, the source holds several entries; their conditions need not be identical. Identical values can stand only once.
# System: EWS502 FKBP12^F36V-EWS/FLI; EWS/FLI^−/− cells
# Experiment: Quantitative MS proteomics, EWS502 FKBP12F36V-EWS/FLI; EWS/FLI-/- cells
# Format: cell-based, Homo sapiens
# Conditions: for TMT intensity per TMT channel: biological replicates
# Method: Cell pellets from PATU-8902 and EWS502 cells were lysed using 8 M urea, 200 mM 4-(2-hydroxyethyl)-1-piperazinepropanesulfonic acid (EPPS) at pH 8.5 with protease inhibitors. Samples were further homogenized and DNA was sheered via sonication using a probe sonicator (20 × 0.5 s pulses; level 3). Total protein was determined using a BCA assay and stored at −80 °C until future use. A total of 100 µg of protein was aliquoted for each condition and TMT channel for further downstream processing. Protein extracts were reduced using 10 mM dithiothreitol (DTT) for 30 min at room temperature. Next, samples were alkylated with 20 mM iodoacetamide for 45 min in the dark at room temperature. To facilitate the removal of incompatible reagents, proteins were precipitated using chloroform methanol. Briefly, to 100 µL of each sample, 400 µL of methanol was added, followed by 100 µL of chloroform with thorough vortexing. Next, 300 µL of HPLC grade water was added and samples were vortexed thoroughly. Each sample was centrifuged at 14,000 × g for 5 min at room temperature. The upper aqueous layer was removed and the protein pellet was washed twice with methanol and centrifuged at 14,000 × g for 5 min at room temperature. Protein pellets were resolubilized in 200 mM EPPS buffer and digested overnight with Lys-C (1:100, enzyme:protein ratio) at room temperature. The next day, trypsin (1:100 ratio) was added and incubated at 37 °C for an additional 6 h in a ThermoMixer set to 1000 RPM.
# To each digested sample, 30% anhydrous acetonitrile was added and 100 µg of peptides were labeled using 200 µg of TMT reagent (TMT1-TMT11). Following labeling, a 5% hydroxylamine solution was used to quench excess TMT reagent. To equalize protein loading, a ratio check was performed by pooling 2 µg of each TMT-labeled sample. Samples were pooled and desalted using in-house packed C18 StageTips and analyzed by LC-MS/MS. Normalization factors were calculated from this label check, samples were mixed 1:1 across all TMT channels and desalted using a 100 mg Sep-Pak solid phase extraction cartridge. Eluted pooled peptides were further fractionated with basic-pH reverse-phase (bRP) HPLC using an Agilent 300 extend C18 column and collected into a 96 deep-well plate. Samples were consolidated into 24 fractions, and 12 nonadjacent fraction were desalted using StageTips prior to analyses using LC-MS/MS[35]–[37].
# All mass spectrometry data was acquired using an Orbitrap Fusion mass spectrometer in-line with a Proxeon NanoLC-1000 UHPLC system. Peptides were separated using an in-house 100 µm capillary column packed with 40 cm of Accucore 150 resin (2.6 µm, 150 Å) (Thermo Fisher Scientific) using a 180 min LC gradient per fraction. Eluted peptides were acquired using synchronous precursor selection (SPS-MS3) method for TMT quantification. Briefly, MS1 spectra were acquired at 120 K resolving power with a maximum of 50 ms in the Orbitrap. MS2 spectra were acquired by selecting the top ten most abundant features via collisional induced dissociation (CID) in the ion trap using an automatic gain control (AGC) of 15 K, quadrupole isolation width of 0.7 m/z and a maximum ion time of 100 ms. For MS3 acquisition, a synchronous precursor selection of ten fragment ions was acquired with an AGC of 150 K for 150 ms and a normalized collision energy of 55.
# All acquired raw data were converted to mzXML using Raw File Reader (v3.0.77). Spectra were processed using Comet (2019.01.5)[39]–[41], search results were filtered using the LDA function MASS Package in R, and data were processed using an in-house informatics pipeline[42]–[44]. Custom code was not developed in this study. Briefly, peptide spectral libraries were first filtered to a peptide false discovery rate (FDR) of less than 1% using linear discriminant analysis employing a target decoy strategy. […]
smiles,measurement,setting,value
CC[C@H](C(=O)N1CCCC[C@H]1C(=O)O[C@H](CCc1ccc(OC)c(OC)c1)c1ccccc1OCC(=O)NCCCCCCC(=O)N[C@H](C(=O)N1C[C@H](O)C[C@H]1C(=O)N[C@@H](C)c1ccc(-c2scnc2C)cc1)C(C)(C)C)c1cc(OC)c(OC)c(OC)c1 [dTAG^V-1],Downstream EWS/FLI targets such as NKX2-2,1 μM,decrease
same,"FKBP12F36V-EWS/FLI abundance, proteomics","1 μM, 6 h",pronounced loss
same,TMT intensity per TMT channel,"protein ALX1, 2 h",329.39 and 330.899 and 363.825
same,TMT intensity per TMT channel,"protein ALX1, 6 h",447.307 and 474.897 and 456.686
same,TMT intensity per TMT channel,"protein ALX1, 24 h",404.298 and 454.379 and 455.33
same,TMT intensity per TMT channel,"protein ALX4, 2 h",469.052 and 457.885 and 499.883
same,TMT intensity per TMT channel,"protein ALX4, 6 h",458.233 and 484.524 and 491.274
same,TMT intensity per TMT channel,"protein ALX4, 24 h",439.297 and 450.367 and 443.433
same,Fold change > 2,"protein HMGCR, 1 μM, 6 h",+ (Fold change in which '+' refers to fold change > 2.)
same,log2 (Fold change) compared to DMSO,"protein HMGCR, 1 μM, 6 h",1.415
same,TMT intensity per TMT channel,"protein HOXD13, 2 h",710.117 and 733.089 and 700.291
same,TMT intensity per TMT channel,"protein HOXD13, 6 h",834.508 and 881.589 and 912.211
same,TMT intensity per TMT channel,"protein HOXD13, 24 h",931.777 and 1032.27 and 996.28
same,log2 (Fold change) compared to DMSO,"protein NOB1, 1 μM, 6 h",0.3965
same,TMT intensity per TMT channel,"protein PHOX2B, 2 h",138.138 and 127.877 and 140.273
same,TMT intensity per TMT channel,"protein PHOX2B, 6 h",146.64 and 175.628 and 155.142
same,TMT intensity per TMT channel,"protein PHOX2B, 24 h",163.818 and 130.026 and 156.319
same,log2 (Fold change) compared to DMSO,"protein PRCP, 1 μM, 6 h",-0.5172
same,TMT intensity per TMT channel,"protein SLC12A2, 2 h",2102.8 and 2152.89 and 2069.05
same,TMT intensity per TMT channel,"protein SLC12A2, 6 h",2768.92 and 2608.81 and 2791.59
same,TMT intensity per TMT channel,"protein SLC12A2, 24 h",2883.76 and 2924.13 and 2976.61
same,log2 (Fold change) compared to DMSO,"protein SQLE, 1 μM, 6 h",0.8919
same,log2 (Fold change) compared to DMSO,"protein TMEM126A, 1 μM, 6 h",-0.3183
